Results on 2 compounds are retold here after paper PMC6337126, “Thiophene Derivatives as Anticancer Agents and Their Delivery to Tumor Cells Using Albumin Nanoparticles” (Molecules, 2019).

In brackets after ≈: the same amount, converted by molar mass. Several values for one entry are separate records, joined by “and”; a condition that tells them apart may be missing. Equal entries are not always repeated. Where two headings read alike, the source gives them in different places. A value given as a limit tells only on which side of the number the result lay.

The test system of series [1] is SMMC-7721. In words: MTT screening assay of TPs. The format is cell-based. The method, then: (§1) HepG2 and SMMC-7721 cell lines were cultured and grown in complete DMEM containing 10% FBS and 1% streptomycin and penicillin in 5% CO2 at 37 °C. TPs were fabricated using the method as described previously. The cytotoxicity of TPs in HepG2 and SMMC-7721 cell in vitro was evaluated by MTT assay. Firstly, cells with a density of 8 × 10^4 cells per wells were placed and cultured in 96-well plates and incubated 24 h at 37 °C. Then, 100 μL of TPs DMEM solution (30 μg/mL) was added into each well. After incubated 24 h, 10 μL of MTT solution (5.0 mg/mL) was added and incubated 4 h. Finally, the medium was removed, 100 μL of DMSO was added and OD values were tested using microplate reader (Synergy4, multi-mode microplate reader, BioTek, Winooski, VT, USA) at 490 nm when the formazan precipitate was completely dissolved. It is worth noting that wells containing normal medium without TPs were regarded as controls. In addition, wells which add the medium with paclitaxel were regarded as a positive control.
(Tetrazolium dyes change colour on reduction, which living cells bring about.)

Series [2] concerns HepG2. In words: MTT screening assay of TPs. The format is cell-based. The method, then:
as §1

Series [3] deals with SMMC-7721. The series is described as follows: Cytotoxicity of TP 5-NPs in vitro (MTT). The format is cell-based. The method, then:
(§2) The cytotoxicity of TP 5-NPs in two cell lines in vitro was assessed. Briefly, cells with a density of 8 × 10^4 cells per wells were placed and cultured in 96-well plates. After incubated 24 h at 37 °C, 100 μL of medium containing different concentrations of TP 5-NPs or TP 5 (10.0, 20.0, 30.0, 40.0 and 50.0 μg/mL) was added to each well and cultured another 24, 48 or 72 h at 37 °C (wells containing the normal medium without formulation were regarded as controls). After that, 10.0 μL of MTT (5.0 mg/mL) was added into each well and incubated for 4.0 h. Finally, the medium was removed and 100.0 μL of DMSO was added. OD values were tested by microplate reader at 490 nm when the formazan precipitate was completely dissolved.

Series [4] has as its system HepG2. The series is described as follows: Cytotoxicity of TP 5-NPs in vitro (MTT). The format is cell-based. How it is done:
as §2

Series [5] has as its system SMMC-7721. The series is described as follows: ROS assay (DCFH-DA). The format is cell-based. The conditions noted are these: SMMC-7721, 30.0 μg/mL, 12 h. How it is done:
(§3) The experimental procedure was similar to the part 4.2.8. Similarly, HepG2 and SMMC-7721 cell were seeded in a 12-well plate and incubated for 24 h. 30.0 μg/mL of TP 5-NPs or TP 5 was added and cultured for another 12 h. After that, 10 μM 2′, 7′-dichlorodihydrofluorescein diacetate (DCFH-DA, Sigma-Aldrich, Saint Louis, MO, USA) was added and incubated for 10.0 min in the dark. Inversed fluorescent microscope was applied to observe fluorescence images.

Series [6] has as its system HepG2. The series is described as follows: ROS assay (DCFH-DA). The format is cell-based. The conditions noted are these: HepG2, 30.0 μg/mL, 12 h. The method, then: as §3
For series [7], the system named is SMMC-7721. In words: Mitochondrial transmembrane potential assay (JC-1). The format is cell-based. The conditions noted are these: SMMC-7721, 30.0 μg/mL, 12 h. The method, then: (§4) In general, cell apoptosis is often accompanied by the transformation of mitochondrial transmembrane potential (ΔΨm). […] In order to verify whether TP 5-NPs can induce cancer cell apoptosis, ΔΨm was measured. Firstly, HepG2 and SMMC-7721 cell with a density of 2 × 10^5 cells per wells in 1.0 mL of medium all were seeded in a 12-well plate and incubated for 24 h. After that, 30.0 μg/mL of TP 5-NPs or TP 5 was added and cultured for another 12 h, in which wells containing normal medium without drugs were regarded as controls. Cells were washed using PBS for three times, incubated for 10 min in 10.0 μg/mL of JC-1 dye in the dark. The level of mitochondrial depolarization was observed by inverted fluorescent microscope and quantitatively analyzed by imaging software Image J [26].

Series [8] deals with HepG2. In words: Mitochondrial transmembrane potential assay (JC-1). The format is cell-based. The conditions noted are these: HepG2, 30.0 μg/mL, 12 h. The method, then: as §4
Series [9] can be described thus: Stability of TP 5 at different temperatures by HPLC. The conditions noted are these: for Detected Concentration: calculated concentration 200.0 μg/mL, single replicates. The format is physicochemical. How it is done: (§5) In order to investigate the solubility and stability of TP 5, a certain amount of TP 5 was dissolved in several solvents (deionized water, PBS buffered solution pH 7.4, ethanol, ethyl acetate, and dichloromethane) and make it saturate. The solubility was measured by HPLC. In addition, for the stability of TP 5, 200.0 μg/mL of TP 5 was placed in different temperature (25.0, 40.0 and 60.0) and the concentration was detected and compared with practical concentration.

Series [10] is described as follows: Solubility of TP 5 in solvents by HPLC. The format is physicochemical. The method, then:
as §5

A short description of series [11]: In vitro drug release by dialysis method. The format is physicochemical. The conditions noted are these: over 120 h, PBS containing 20.0% ethanol, 37 °C. How it is done: The detailed process was as follows: first, TP 5 and TP 5-NPs were all dissolved or dispersed in 1.0 mL PBS (pH 7.4), respectively. Then, they were placed in a dialysis bag (the molecule weight cutoff was 12.0 kD). After that, they were placed in 50.0 mL release medium PBS containing 20.0% v/v ethanol and maintained at 37 °C with continuous stirring at 150 rpm. Sink conditions were maintained. At predetermined time intervals, 1.0 mL release medium was withdrawn and replaced with 1.0 mL 37 °C fresh release medium. Finally, the released capacity of TP 5 was detected by HPLC.

The term IC50 denotes the point on the concentration scale where inhibition reaches its midpoint. `CC(=O)O[C@H]1C(=O)[C@@]2(C)[C@H]([C@H](OC(=O)c3ccccc3)[C@]3(O)C[C@H](OC(=O)[C@H](O)[C@@H](NC(=O)c4ccccc4)c4ccccc4)C(C)=C1C3(C)C)[C@]1(OC(C)=O)CO[C@@H]1C[C@@H]2O` [paclitaxel, reference compound]: the half-inhibitory concentration (IC50) in the series with SMMC-7721 [1] (Homo sapiens, SMMC-7721, 24 h) stood at 35.3 µg/mL; with HepG2 [2] (Homo sapiens, HepG2, 24 h) it was 35.9 µg/mL.

By solubility is commonly meant how much of the substance goes into solution per volume. Turning to `Cc1cc2c(s1)C1=NC(=O)OC1(c1ccc(Cl)c(Cl)c1)CC2` (centres unmarked) [TP 5], the cytotoxicity entry is “dose and time-dependent cytotoxicity” in the series with SMMC-7721 [3] (SMMC-7721, 10.0-50.0 μg/mL, 24, 48 and 72 h); “dose and time-dependent cytotoxicity” with HepG2 [4] (HepG2, 10.0-50.0 μg/mL, 24, 48 and 72 h). For the same compound, the “concentration above which cells were completely killed” value with SMMC-7721 [3] (SMMC-7721, MTT, 24, 48 and 72 h) is reported as “exceeds 40.0 μg/mL”; in the series on HepG2 [4] (HepG2, MTT, 24, 48 and 72 h) it was “exceeds 40.0 μg/mL”. Also, the “antitumor activity compared with other TPs and paclitaxel” value with SMMC-7721 [1] (SMMC-7721, 30.0 μg/mL, 24 h) is listed as “higher activity than other TPs including paclitaxel”; with HepG2 [2] (HepG2, 30.0 μg/mL, 24 h) it was “higher activity than other TPs including paclitaxel”. Moreover, the “levels of ROS” value with SMMC-7721 [5] and in the series with HepG2 [6] was “higher than those of control cells” in each case. Moreover, the “JC-1 polymer/monomer (red/green) fluorescence ratio” value in the series with SMMC-7721 [7] and in the series on HepG2 [8] was “lower than those of controls” in each case. The “Detected Concentration” value is 201.18 µg/mL and 200.53 µg/mL and 199.88 µg/mL in series [9] (25.0 °C); 202.66 µg/mL and 200.05 µg/mL and 202.01 µg/mL in series [9] (40.0 °C); 202.28 µg/mL and 202.93 µg/mL and 201.19 µg/mL in [9] (60.0 °C). The “thermal stability of structure” value in series [9] (temperature increased to 60 °C, HPLC) is “stable”. For the same compound, the solubility in [10] (PBS containing 20.0% v/v ethanol, PBS pH 7.4 containing 20.0% v/v ethanol, read-out: Solubility in release (acceptor) medium) was 88.2 µg/mL (≈ 250 µM); in [10] (aqueous buffer, thermodynamic from solid, PBS buffered solution (pH 7.4), 25 °C, read-out: Solubility), 27.6 µg/mL (≈ 78.5 µM); in series [10] (deionized water, 25 °C, water, thermodynamic from solid, read-out: Solubility) it was 26.4 µg/mL (≈ 74.8 µM); in series [10] (dichloromethane, 25 °C, organic solvent or mixture, thermodynamic from solid, read-out: Solubility), over 13000 µg/mL; in series [10] (ethanol, 25 °C, organic solvent or mixture, thermodynamic from solid, read-out: Solubility) it was 2480 µg/mL (≈ 7040 µM); in series [10] (ethyl acetate, 25 °C, organic solvent or mixture, thermodynamic from solid, read-out: Solubility), over 6800 µg/mL. The drug released in series [11] is recorded as ~ 20%.
